Source: the OligoGym collection
HELM strings list units from the 5' end as sugar, base in round brackets, then linkage (d deoxyribose, r ribose, m 2'-O-methyl, p phosphodiester). Strings are as the collection lists them; they lack the last nucleoside at the 3' end of the tested compound. [moe] = 2'-O-(2-methoxyethyl) (MOE); [sp] = phosphorothioate linkage; [m5C] = 5-methylcytosine

Molecular target: GFAP
Test: mouse, dose not given
Conditions: ASO

“RNA1{[moe](T)[sp].[moe](G)p.[moe](T)p.[moe]([m5C])p.[moe](T)[sp].d(T)[sp].d(T)[sp].d(A)[sp].d(T)[sp].d(T)[sp].d(T)[sp].d(T)[sp].d(T)[sp].d([m5C])[sp].d([m5C])[sp].[moe](T)p.[moe]([m5C])p.[moe](A)[sp].[moe](G)}$$$$ (last 3' nucleoside missing)” gave a 3 h FOB score of 2 score 0-7.
“RNA1{[moe](T)[sp].[moe](G)p.[moe](T)p.[moe]([m5C])p.[moe](T)p.[moe](T)p.d(T)[sp].d(A)[sp].d(T)[sp].d(T)[sp].d(T)[sp].d(T)[sp].d(T)[sp].d([m5C])[sp].d([m5C])[sp].d(T)[sp].[moe]([m5C])p.[moe](A)[sp].[moe](G)}$$$$ (last 3' nucleoside missing)” showed a 3 h FOB score of 1 score 0-7.
In the case of “RNA1{[moe](T)[sp].[moe](G)p.[moe](T)p.[moe]([m5C])p.d(T)[sp].d(T)[sp].d(T)[sp].d(A)[sp].d(T)[sp].d(T)[sp].d(T)[sp].d(T)[sp].d(T)[sp].d([m5C])[sp].[moe]([m5C])p.[moe](T)p.[moe]([m5C])p.[moe](A)[sp].[moe](G)}$$$$ (last 3' nucleoside missing)”, the 3 h FOB score is reported as 2 score 0-7.
“RNA1{[moe](T)[sp].[moe](G)p.[moe]([m5C])p.[moe](T)p.[moe](T)[sp].d(T)[sp].d(T)[sp].d(G)[sp].d([m5C])[sp].d([m5C])[sp].d([m5C])[sp].d([m5C])[sp].d([m5C])[sp].d(T)[sp].d([m5C])[sp].[moe](G)p.[moe](A)p.[moe](A)[sp].[moe](T)}$$$$ (last 3' nucleoside missing)” gave a 3 h FOB score of 4 score 0-7.
“RNA1{[moe](T)[sp].[moe](G)p.[moe]([m5C])p.[moe]([m5C])p.[moe](A)[sp].d(T)[sp].d(T)[sp].d(T)[sp].d(A)[sp].d(T)[sp].d([m5C])[sp].d(T)[sp].d(G)[sp].[moe](T)p.[moe](G)p.[moe]([m5C])[sp].[moe](T)}$$$$ (last 3' nucleoside missing)” gave a 3 h FOB score of 3 score 0-7.
“RNA1{[moe](T)[sp].[moe](G)p.[moe]([m5C])p.[moe]([m5C])p.[moe](A)p.[moe](T)p.d(T)[sp].d(T)[sp].d(A)[sp].d(T)[sp].d([m5C])[sp].d(T)[sp].d(G)[sp].d(T)[sp].d(G)[sp].d([m5C])[sp].[moe](T)p.[moe](T)[sp].[moe](T)}$$$$ (last 3' nucleoside missing)” gave a 3 h FOB score of 2 score 0-7.
Substance “RNA1{[moe](T)[sp].[moe](G)p.[moe]([m5C])p.[moe]([m5C])p.[moe](A)p.d(T)[sp].d(T)[sp].d(T)[sp].d(A)[sp].d(T)[sp].d([m5C])[sp].d(T)[sp].d(G)[sp].d(T)[sp].d(G)[sp].[moe]([m5C])p.[moe](T)p.[moe](T)[sp].[moe](T)}$$$$ (last 3' nucleoside missing)” has a 3 h FOB score of 1 score 0-7.
In the case of “RNA1{[moe](T)[sp].[moe](G)p.[moe]([m5C])p.[moe]([m5C])p.[moe]([m5C])[sp].d([m5C])[sp].d([m5C])[sp].d([m5C])[sp].d(G)[sp].d([m5C])[sp].d([m5C])[sp].d([m5C])[sp].d(T)[sp].d([m5C])[sp].d([m5C])[sp].[moe](T)p.[moe]([m5C])p.[moe]([m5C])[sp].[moe]([m5C])}$$$$ (last 3' nucleoside missing)”, the 3 h FOB score is reported as 4 score 0-7.
Substance “RNA1{[moe](T)[sp].[moe](G)p.[moe]([m5C])p.[moe]([m5C])p.d(A)[sp].d(T)[sp].d(T)[sp].d(T)[sp].d(A)[sp].d(T)[sp].d([m5C])[sp].d(T)[sp].d(G)[sp].d(T)[sp].[moe](G)p.[moe]([m5C])p.[moe](T)p.[moe](T)[sp].[moe](T)}$$$$ (last 3' nucleoside missing)” has a 3 h FOB score of 0 score 0-7.
Work on “RNA1{[moe](T)[sp].[moe](T)p.[moe](A)p.[moe](T)p.[moe](T)[sp].d(T)[sp].d(T)[sp].d(T)[sp].d([m5C])[sp].d([m5C])[sp].d(T)[sp].d([m5C])[sp].d(A)[sp].[moe](G)p.[moe]([m5C])p.[moe](G)[sp].[moe](A)}$$$$ (last 3' nucleoside missing)” yielded a 3 h FOB score of 0 score 0-7.
For “RNA1{[moe](T)[sp].[moe](T)p.[moe](G)p.[moe](A)p.[moe](G)[sp].d(A)[sp].d(T)[sp].d(A)[sp].d(T)[sp].d([m5C])[sp].d(T)[sp].d(T)[sp].d(G)[sp].[moe](T)p.[moe](G)p.[moe](A)[sp].[moe]([m5C])}$$$$ (last 3' nucleoside missing)”, the 3 h FOB score was 3 score 0-7.
With “RNA1{[moe](T)[sp].[moe](T)p.[moe](G)p.[moe](A)p.[moe](G)[sp].d(A)[sp].d(T)[sp].d(A)[sp].d(T)[sp].d([m5C])[sp].d(T)[sp].d(T)[sp].d(G)[sp].d(T)[sp].d(G)[sp].[moe](A)p.[moe]([m5C])p.[moe]([m5C])[sp].[moe](T)}$$$$ (last 3' nucleoside missing)” the 3 h FOB score was 4 score 0-7.
With “RNA1{[moe](T)[sp].[moe](T)p.[moe](G)p.[moe](A)p.[moe](G)p.d(A)[sp].d(T)[sp].d(A)[sp].d(T)[sp].d([m5C])[sp].d(T)[sp].d(T)[sp].d(G)[sp].d(T)[sp].d(G)[sp].[moe](A)p.[moe]([m5C])p.[moe]([m5C])[sp].[moe](T)}$$$$ (last 3' nucleoside missing)” the 3 h FOB score was 3 score 0-7.
Work on “RNA1{[moe](T)[sp].[moe](T)p.[moe](G)p.[moe](G)p.[moe](T)p.[moe](G)p.d([m5C])[sp].d(T)[sp].d(T)[sp].d(T)[sp].d(T)[sp].d(G)[sp].d([m5C])[sp].d([m5C])[sp].d([m5C])[sp].d([m5C])[sp].[moe]([m5C])p.[moe](T)[sp].[moe](G)}$$$$ (last 3' nucleoside missing)” yielded a 3 h FOB score of 1 score 0-7.
For “RNA1{[moe](T)[sp].[moe](T)p.[moe](G)p.[moe](G)p.[moe](T)p.d(G)[sp].d([m5C])[sp].d(T)[sp].d(T)[sp].d(T)[sp].d(T)[sp].d(G)[sp].d([m5C])[sp].d([m5C])[sp].d([m5C])[sp].[moe]([m5C])p.[moe]([m5C])p.[moe](T)[sp].[moe](G)}$$$$ (last 3' nucleoside missing)”, the 3 h FOB score was 0 score 0-7.
“RNA1{[moe](T)[sp].[moe](T)p.[moe](G)p.[moe](G)p.[moe]([m5C])[sp].d(A)[sp].d(G)[sp].d(T)[sp].d(A)[sp].d(T)[sp].d(T)[sp].d(A)[sp].d([m5C])[sp].[moe]([m5C])p.[moe](T)p.[moe]([m5C])[sp].[moe](T)}$$$$ (last 3' nucleoside missing)” was tested, and the 3 h FOB score was 0 score 0-7.
“RNA1{[moe](T)[sp].[moe](T)p.[moe](G)p.[moe](G)p.[moe]([m5C])[sp].d(A)[sp].d(G)[sp].d(T)[sp].d(A)[sp].d(T)[sp].d(T)[sp].d(A)[sp].d([m5C])[sp].d([m5C])[sp].d(T)[sp].[moe]([m5C])p.[moe](T)p.[moe](A)[sp].[moe]([m5C])}$$$$ (last 3' nucleoside missing)” gave a 3 h FOB score of 2 score 0-7.
“RNA1{[moe](T)[sp].[moe](T)p.[moe](G)p.[moe](G)p.[moe]([m5C])p.[moe](A)p.d(G)[sp].d(T)[sp].d(A)[sp].d(T)[sp].d(T)[sp].d(A)[sp].d([m5C])[sp].d([m5C])[sp].d(T)[sp].d([m5C])[sp].[moe](T)p.[moe](A)[sp].[moe]([m5C])}$$$$ (last 3' nucleoside missing)” was tested, and the 3 h FOB score was 0 score 0-7.
Work on “RNA1{[moe](T)[sp].[moe](T)p.[moe](G)p.[moe](G)p.[moe]([m5C])p.d(A)[sp].d(G)[sp].d(T)[sp].d(A)[sp].d(T)[sp].d(T)[sp].d(A)[sp].d([m5C])[sp].d([m5C])[sp].d(T)[sp].[moe]([m5C])p.[moe](T)p.[moe](A)[sp].[moe]([m5C])}$$$$ (last 3' nucleoside missing)” yielded a 3 h FOB score of 0 score 0-7.
“RNA1{[moe](T)[sp].[moe](T)p.[moe](G)p.[moe](G)p.d(T)[sp].d(G)[sp].d([m5C])[sp].d(T)[sp].d(T)[sp].d(T)[sp].d(T)[sp].d(G)[sp].d([m5C])[sp].d([m5C])[sp].[moe]([m5C])p.[moe]([m5C])p.[moe]([m5C])p.[moe](T)[sp].[moe](G)}$$$$ (last 3' nucleoside missing)” gave a 3 h FOB score of 1 score 0-7.
In the case of “RNA1{[moe](T)[sp].[moe](T)p.[moe](G)p.[moe](G)p.d([m5C])[sp].d(A)[sp].d(G)[sp].d(T)[sp].d(A)[sp].d(T)[sp].d(T)[sp].d(A)[sp].d([m5C])[sp].d([m5C])[sp].[moe](T)p.[moe]([m5C])p.[moe](T)p.[moe](A)[sp].[moe]([m5C])}$$$$ (last 3' nucleoside missing)”, the 3 h FOB score is reported as 1 score 0-7.
“RNA1{[moe](T)[sp].[moe](T)p.[moe](G)p.[moe](T)p.[moe](G)[sp].d(A)[sp].d(T)[sp].d(T)[sp].d(T)[sp].d(T)[sp].d([m5C])[sp].d([m5C])[sp].d([m5C])[sp].[moe]([m5C])p.[moe](G)p.[moe](T)[sp].[moe]([m5C])}$$$$ (last 3' nucleoside missing)” showed a 3 h FOB score of 2 score 0-7.
“RNA1{[moe](T)[sp].[moe](T)p.[moe](G)p.[moe](T)p.[moe](G)p.[moe](A)p.d(T)[sp].d(T)[sp].d(T)[sp].d(T)[sp].d([m5C])[sp].d([m5C])[sp].d([m5C])[sp].d([m5C])[sp].d(G)[sp].d(T)[sp].[moe]([m5C])p.[moe](T)[sp].[moe](T)}$$$$ (last 3' nucleoside missing)” gave a 3 h FOB score of 4 score 0-7.
“RNA1{[moe](T)[sp].[moe](T)p.[moe](G)p.[moe](T)p.[moe]([m5C])[sp].d(T)[sp].d(T)[sp].d(T)[sp].d(A)[sp].d(T)[sp].d(T)[sp].d(T)[sp].d(T)[sp].[moe](T)p.[moe]([m5C])p.[moe]([m5C])[sp].[moe](T)}$$$$ (last 3' nucleoside missing)” showed a 3 h FOB score of 0 score 0-7.
“RNA1{[moe](T)[sp].[moe](T)p.[moe](G)p.[moe](T)p.[moe]([m5C])[sp].d(T)[sp].d(T)[sp].d(T)[sp].d(A)[sp].d(T)[sp].d(T)[sp].d(T)[sp].d(T)[sp].d(T)[sp].d([m5C])[sp].[moe]([m5C])p.[moe](T)p.[moe]([m5C])[sp].[moe](A)}$$$$ (last 3' nucleoside missing)” was tested, and the 3 h FOB score was 1 score 0-7.
“RNA1{[moe](T)[sp].[moe](T)p.[moe](G)p.[moe](T)p.[moe]([m5C])p.[moe](T)p.d(T)[sp].d(T)[sp].d(A)[sp].d(T)[sp].d(T)[sp].d(T)[sp].d(T)[sp].d(T)[sp].d([m5C])[sp].d([m5C])[sp].[moe](T)p.[moe]([m5C])[sp].[moe](A)}$$$$ (last 3' nucleoside missing)” gave a 3 h FOB score of 4 score 0-7.
